Data from ChEMBL document CHEMBL1201862, “PubChem BioAssay data set” (2004).
Active and inactive are the calls of the source.

Experiments:
[1] = molecular target: T1, Methionyl-tRNA synthetase, putative (Trypanosoma brucei brucei, UniProt Q38C91); assay type: functional, Trypanosoma brucei brucei strain 927/4 GUTat10.1
T1 sequence (Q38C91 whole entry): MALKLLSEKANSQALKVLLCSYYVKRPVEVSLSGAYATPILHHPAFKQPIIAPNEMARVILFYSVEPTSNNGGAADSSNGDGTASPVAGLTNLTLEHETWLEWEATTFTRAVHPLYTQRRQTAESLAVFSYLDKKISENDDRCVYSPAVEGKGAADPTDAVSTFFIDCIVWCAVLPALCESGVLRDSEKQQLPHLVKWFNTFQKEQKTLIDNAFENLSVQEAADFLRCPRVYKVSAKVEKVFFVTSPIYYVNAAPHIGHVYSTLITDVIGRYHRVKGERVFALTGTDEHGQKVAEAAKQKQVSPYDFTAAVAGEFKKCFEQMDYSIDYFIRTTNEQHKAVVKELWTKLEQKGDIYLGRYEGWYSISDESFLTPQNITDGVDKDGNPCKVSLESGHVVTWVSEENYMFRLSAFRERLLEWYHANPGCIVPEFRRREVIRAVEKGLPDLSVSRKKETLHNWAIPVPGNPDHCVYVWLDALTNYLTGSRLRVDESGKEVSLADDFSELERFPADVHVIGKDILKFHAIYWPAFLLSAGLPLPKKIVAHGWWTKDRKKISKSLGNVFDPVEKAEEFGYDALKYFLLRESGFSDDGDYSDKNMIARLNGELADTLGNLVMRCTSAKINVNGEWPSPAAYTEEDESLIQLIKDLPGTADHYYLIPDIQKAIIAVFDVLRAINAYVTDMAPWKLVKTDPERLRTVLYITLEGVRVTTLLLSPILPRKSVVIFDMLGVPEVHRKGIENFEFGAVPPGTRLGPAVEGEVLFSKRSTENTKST

[2] = molecular target: T1, Methionyl-tRNA synthetase, putative; assay type: functional, Trypanosoma brucei brucei strain 927/4 GUTat10.1; remark: listed apart in the source
[3] = system: Streptococcus sp. 'group A'; test: Streptococcus pyogenes SK(-)GAS viability under kanamycin – luminescence, BacTiterGlo, confirmation, counter-screen for streptokinase expression inhibitor project, dose response (AID 1900); assay type: functional, organism-based
[4] = molecular target: T2, Streptokinase A (Streptococcus pyogenes serotype M1, UniProt P10520); test: viability-normalized secreted streptokinase activity reduction – plasminogen activation absorbance, OD405, dose response (AID 1914); assay type: functional, Streptococcus pyogenes M1 GAS;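 further: secreted streptokinase activity via plasminogen activation per viability signal from cell pellet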
T2 sequence (P10520 whole entry): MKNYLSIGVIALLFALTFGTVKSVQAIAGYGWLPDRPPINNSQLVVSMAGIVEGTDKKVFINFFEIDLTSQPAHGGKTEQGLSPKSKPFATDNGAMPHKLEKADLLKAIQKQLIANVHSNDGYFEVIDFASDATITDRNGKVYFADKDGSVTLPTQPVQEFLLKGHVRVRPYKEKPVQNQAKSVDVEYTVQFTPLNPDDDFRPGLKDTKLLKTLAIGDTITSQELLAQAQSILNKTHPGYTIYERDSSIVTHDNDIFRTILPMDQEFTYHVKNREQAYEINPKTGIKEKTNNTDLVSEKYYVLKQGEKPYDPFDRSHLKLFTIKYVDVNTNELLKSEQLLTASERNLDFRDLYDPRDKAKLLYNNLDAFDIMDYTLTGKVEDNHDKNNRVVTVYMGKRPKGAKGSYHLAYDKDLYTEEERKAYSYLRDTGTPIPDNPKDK

[5] = system: Streptococcus; test: GAS UMAA2166 growth inhibition – luminescence, BacTiterGlo, counter-screen for streptokinase expression inhibitor project, dose response (AID 1915); assay type: functional, organism-based;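 further: potency for reduction of bacterial viability or growth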
[6] = Late stage counterscreen for inhibitors of Trypanosoma brucei methionyl tRNA synthetase (MetRS): Luminescence-based cell-based high throughput dose response assay to identify compounds that are cytotoxic to Jurkat human T lymphocyte cells.; assay type: functional
[7] = Counterscreen for inhibitors of Trypanosoma brucei methionyl tRNA synthetase (MetRS): Luminescence-based cell-based high throughput dose response assay to identify compounds that are cytotoxic to Jurkat human T lymphocyte cells.; assay type: functional
[8] = Luminescence-based cell-based high throughput dose response assay to identify activators of the DAF-12 from the parasite S. stercoralis (ssDAF-12).; assay type: functional
[9] = molecular target: T3, Oxysterols receptor LXR-beta (Homo sapiens, UniProt P55055); test: LXR agonists, Gal4 luciferase reporter, dose response, counter-screen for ssDAF-12 agonist project, cell-based, luminescence, HEK293, S. stercoralis campaign (AID 720737); assay type: functional; conditions: read-out: IC50 (the source's name)
T3 sequence (P55055 whole entry): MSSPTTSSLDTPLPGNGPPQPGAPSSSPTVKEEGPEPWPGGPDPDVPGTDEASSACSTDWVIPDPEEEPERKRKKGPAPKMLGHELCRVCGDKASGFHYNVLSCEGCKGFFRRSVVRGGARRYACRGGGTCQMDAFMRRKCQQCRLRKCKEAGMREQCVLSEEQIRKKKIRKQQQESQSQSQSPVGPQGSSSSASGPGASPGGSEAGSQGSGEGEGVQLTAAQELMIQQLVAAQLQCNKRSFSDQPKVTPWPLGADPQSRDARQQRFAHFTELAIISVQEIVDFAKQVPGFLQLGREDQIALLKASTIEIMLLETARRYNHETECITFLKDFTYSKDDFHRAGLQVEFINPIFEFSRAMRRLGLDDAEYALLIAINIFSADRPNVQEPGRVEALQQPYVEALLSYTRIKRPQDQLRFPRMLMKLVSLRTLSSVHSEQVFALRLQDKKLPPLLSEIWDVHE

[10] = molecular target: Sphingosine 1-phosphate receptor 2 (Homo sapiens, UniProt O95136); test: Dose Response Cell Based Assay for Agonists of the S1P2 Receptor. [Related pubchem assays: 729, 736, 843 ]; assay type: functional
Sphingosine 1-phosphate receptor 2, sequence (O95136 whole entry): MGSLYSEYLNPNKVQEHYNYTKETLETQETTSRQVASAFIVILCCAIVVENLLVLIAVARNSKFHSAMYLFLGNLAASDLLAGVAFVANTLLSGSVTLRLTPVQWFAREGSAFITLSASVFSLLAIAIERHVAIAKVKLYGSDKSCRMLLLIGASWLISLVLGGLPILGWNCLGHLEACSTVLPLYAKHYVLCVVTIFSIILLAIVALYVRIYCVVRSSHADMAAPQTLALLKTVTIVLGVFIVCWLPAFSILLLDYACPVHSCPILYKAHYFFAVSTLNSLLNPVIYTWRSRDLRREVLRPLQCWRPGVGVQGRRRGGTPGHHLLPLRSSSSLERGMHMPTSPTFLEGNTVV

[11] = HIV-1 Vif–A3G interaction blockers – biochemical, TR-FRET, GST-Vif 1-94, biotin-A3G peptide, dose response retest, primary screen (AID 1117319); assay type: functional;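 further: TR-FRET signal of purified GST-Vif binding a biotinylated A3G peptide; inhibitors lower the FRET signal by blocking Vif and A3G binding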
[12] = molecular target: T4, Tyrosine-protein phosphatase non-receptor type 7 (Homo sapiens, UniProt P35236); test: HePTP tyrosine phosphatase activity blockers – biochemical, absorbance, leukemia target, primary screen (AID 521); assay type: functional
T4 sequence (P35236 whole entry): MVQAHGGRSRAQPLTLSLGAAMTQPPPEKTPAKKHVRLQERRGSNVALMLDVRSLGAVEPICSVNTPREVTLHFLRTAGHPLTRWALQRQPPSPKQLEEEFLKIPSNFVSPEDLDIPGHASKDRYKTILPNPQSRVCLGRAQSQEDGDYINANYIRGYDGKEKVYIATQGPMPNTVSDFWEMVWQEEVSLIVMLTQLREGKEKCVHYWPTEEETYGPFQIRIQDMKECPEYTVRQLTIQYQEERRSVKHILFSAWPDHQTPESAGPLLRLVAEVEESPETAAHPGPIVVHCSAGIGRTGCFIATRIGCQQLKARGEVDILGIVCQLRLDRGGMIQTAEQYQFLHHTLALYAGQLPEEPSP

[13] = molecular target: T5, Protein Tat (Human immunodeficiency virus type 1 group M subtype B (isolate HXB2)(HIV-1), UniProt P04608); assay type: functional;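 further: tat binding to TAR RNA read out by fluorescence polarization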
T5 sequence (P04608 whole entry): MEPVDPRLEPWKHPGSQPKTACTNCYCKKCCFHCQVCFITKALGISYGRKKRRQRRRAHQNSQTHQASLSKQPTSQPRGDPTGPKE

[14] = viability loss in THP-1 monocytes – THP-1 cells, cytotoxicity control for Vif-APOBEC3G degradation inhibitor project, dose response (AID 1117359); assay type: functional; conditions: THP-1
[15] = molecular target: T6, Mannose-6-phosphate isomerase (Homo sapiens, UniProt P34949); test: MPI enzyme activity inhibition – biochemical, fluorescence intensity, coupled assay, primary screen (AID 1209)
T6 sequence (P34949 whole entry): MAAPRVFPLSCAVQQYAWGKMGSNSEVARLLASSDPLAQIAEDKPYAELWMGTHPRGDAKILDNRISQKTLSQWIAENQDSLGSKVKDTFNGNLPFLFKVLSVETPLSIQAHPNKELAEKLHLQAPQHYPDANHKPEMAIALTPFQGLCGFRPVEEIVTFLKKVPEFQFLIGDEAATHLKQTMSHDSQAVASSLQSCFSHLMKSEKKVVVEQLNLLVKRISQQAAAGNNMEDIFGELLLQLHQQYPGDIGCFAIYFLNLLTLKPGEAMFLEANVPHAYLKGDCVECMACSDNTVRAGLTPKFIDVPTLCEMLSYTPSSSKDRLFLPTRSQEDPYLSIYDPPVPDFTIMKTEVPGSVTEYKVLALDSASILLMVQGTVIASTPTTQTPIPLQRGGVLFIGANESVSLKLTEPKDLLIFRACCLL

[16] = molecular target: T6, Mannose-6-phosphate isomerase; test: MPI inhibition at elevated mannose 6-phosphate – biochemical, fluorescence intensity, high mannose 6-phosphate, primary screen (AID 1220)

With `O=C1CC(N(CCc2ccccc2)C(=S)Nc2ccccc2)C(=O)N1c1ccc(Br)cc1` (centres undefined) the IC50 [1] was 0.743 µM (active), the IC50 [2] was 0.46 µM (active) and the EC50 [3] was 2.87 µM (active). For the same compound, the EC50 [4] was 2.67 µM (active), the EC50 [5] was 18.3 µM (active) and the IC50 [6] was 15.4 µM (inactive). The IC50 [7] was 25.3 µM (inactive).
With `Cc1cc(NC(=S)NC(=O)/C=C/c2ccc(S(=O)(=O)N3CCOCC3)cc2)ccc1Br` the IC50 [8] was > 67.5 µM (inactive) and the EC50 [9] was > 67.5 µM (inactive).
In the case of `COc1ccccc1CNC(=O)c1c(N)n(CCCN2CCOCC2)c2nc3ccccc3nc12`, the EC50 [10] is reported as 3.9 µM (active).
For `C[C@@H]1NC(=O)[C@H](CCC(N)=O)NC(=O)c2cc([N+](=O)[O-])cc(I)c2NCCC[C@@H](C(N)=O)NC1=O`, the IC50 [11] was > 100 µM (active).
With `Oc1ccccc1C1NN=C(c2ccccc2)S1` (centres undefined) the IC50 [8] was > 67.5 µM (inactive) and the EC50 [9] was > 67.5 µM (inactive).
For `CCc1nnc(NC(=O)CSc2nnc(-c3ccoc3C)n2CC(C)C)s1`, the IC50 [12] was > 100 µM (not active).
For `COc1cc(CNc2ccc3[nH]c(O)nc3c2)cc(Cl)c1OCC(=O)NC(C)(C)C`, the IC50 [13] was 50.5 µM (inconclusive), the CC50 [14] was > 40 µM (active) and the IC50 [11] was > 51.4 µM (active). For the same compound, the IC50 [15] was > 50 µM (not active) and the IC50 [16] was > 50 µM (not active).
